Measured values as given in patent publication US10201559B2, “Compositions of selenoorganic compounds and methods of use thereof” (Alltech, Inc., priority 2014, dated 2019).
Entries after “also recorded” stand apart in the source; their conditions may differ.

Experiments:
HEK293T cells = assay: Fluorescence analysis of mitochondrial potential in HEK293T cells; assay type: cell-based, human; settings: for MT potential (Mitotracker Orange fluorescence): 4.5 hr; for MT potential / mitochondrial activity in kidney cells: dose not stated
Procedure: HEK293T cells were cultured in 8-chamber glass slides (1×10^4 cells/chamber) for 24 hours, and then treated with various concentrations of compounds or its respective sulfur analogs (dissolved in sterilized water) for 4.5 hr. These compound-treated cells were rinsed twice with PBS, and incubated with Mitotracker Orange Fluorescence Dye (Invitrogen) at 37° C. for 30 min, and then replaced with fresh PBS according to the Manufacturer's protocol. Then fluorescent signals (mitochondrial potential) in these living cells were recorded using a Zeiss Axio Vert.A1 fluorescence microscope (Thornwood, N.Y.). At least three samples in each treatment group were analyzed under the fluorescent microscope.

C2C12 cells [1] = assay: Quantitative analysis of mitochondrial potential in C2C12 cells; assay type: cell-based, mouse; settings: for MT potential: 24 hr, compared to control
Procedure: For C2C12 cells, equal number of cells (1×10^4) were seeded on Corning 96-well clear-bottom and dark-wall cell culture plates (VWR), cultured in 10% FBS DMEM media for 24 hr., and then treated with vehicle (sterilized water), compound C and D and their sulfur analogs for 24 and 48 hrs. These vehicle- or compound-treated cells were rinsed twice with PBS, incubated with Mitotracker Orange fluorescence dye at 37° C. for 30 min, and then replaced with PBS. Mitotracker Orange fluorescence intensities (mitochondrial potential) in these living cells were determined by a Bio-TeK Synergy HT Multi-Mode Fluorescence Microplate Reader (Winooski, Vt.). Eight samples per each treatment were examined for the above analysis, and data are presented as mean±sem of eight samples.

C2C12 cells [2] = assay: Cell viability assay, C2C12; assay type: cell-based, mouse; settings: 24 hr and 48 hr, same doses
Procedure: (§1) Cell viability in cultured cells was determined using Promega's CellTiter96® AQueous One Solution Cell Proliferation Assay kits, according to the Manufacturer's protocol. In brief, equal number of C2C12 (1×10^4 cells/well), AML-12 (1×10^4 cells/well) and IMR-32 (2×10^4 cells/well) were seeded on 96-well clear plates (VWR) and treated with vehicle or compounds for 24, […] and/or 72 hr. Then, cultured cells were incubated with AQueous One solution (100 ul/per well) at 37° C. for 1 hr, and the absorbance of OD490 nm in each sample was determined by the Bio-Tek microplate reader. Cell viability in culture cells were determined by the subtraction of OD490 nm in cultured cells with the OD490 nm in plain culture media (without seeding of cells). Eight samples per each treatment were examined for the above analysis. Data are presented as Mean±sem of eight samples.

IMR-32 cells = assay: Cell viability assay, IMR-32; assay type: cell-based, human; settings: 24, 48 and 72 hr
Procedure: as §1

AML-12 cells = assay: Cell viability assay, AML-12; assay type: cell-based, mouse; settings: 48 hr
Procedure: as §1

[3] = test system: rat brain cortex mitochondria; assay: OCR of calcium-stressed rat brain cortex mitochondria (SeaHorse); assay type: biochemical; settings: calcium (10 μM) and 150 ppb compound; control 1,677, calcium alone 1,066
Procedure: The following example describes an experiment performed in the SeaHorse external flux analyzer; an instrument for measuring the respiration rate of mitochondria expressed as the oxygen consumption rate, or OCR. The experiment in question used mitochondria from the brain cortex of normal rats, maintained on normal laboratory chow which had not been fortified with any additional selenium sources.
An identical sample of the same mitochondrial preparation was treated in exactly the same manner as the control sample except that calcium (10 micromolar final concentration) was added to stress or damage the mitochondria by depolarizing them. As shown (bottom line) the OCR dropped from a value of 1,677 to 1,066 pMoles/min O2.
Again, identical samples of rat brain cortex mitochondria were incubated as above except that they contained calcium (10 μM) and 150 ppb of compounds D and E, respectively. C was not tested. It is evident that the OCR of the compound-treated, calcium-stressed mitochondria were restored to near control levels, i.e. 1,564 pMoles/min O2 in the case of compound D and 1,531 pMoles/min O2 in the case of compound E.

pTau S396 = assay: Western blot, pTau S396 in IMR-32 cells; assay type: cell-based, human; settings: 150 ppb, 24 hr
Procedure: (§2) IMR-32 and AML12 cells were seeded on 6-well plates, and then treated with vehicle and various compounds for 6 and 24 hr, as described above. After treatments, cells were rinsed with ice-cold PBS, and lysed in the ice-cold RIPA buffer containing complete proteinase and phosphotase inhibitors (Themo-Fisher Scientific, Waltham, Mass.) on ice for 30 min. Cell lysates were collected using a cell scraper and transfer pipette, and then centrifuged at 12000 g for 30 min at 4° C. to remove the DNA pellet and obtain the protein extract. Protein levels in the supernatant of these cell lysates were determined using the Pierce Micro-BCA protein assay kit (Themo Scientific-Piece Biotechnology, Rockford, Ill.) according to the manufacturer's protocol.
(§3) For Western blot analysis, five micrograms of total proteins from vehicle- and compound(s)-treated cells were subjected to SDS-PAGE gel separation, and then transferred to PVDF membranes, as described previously (Reddy, Liu et al. 2008 Science). […] All primary antibodies except G6PC (Santa Cruz), Actb (Li-COR, Lincoln, Nebr.), Elf2bε and pElf2bε (Abcam, Cambridge, Mass.) were purchased from Cell Signaling Inc. Positive signals on the membrane blots were detected using the Amersham's enhanced chemiluminescence Western Blotting Prime Detection reagents (GE healthcare Lifescience, Pittsburgh, Pa.). […]

pFOXO4 T28 = assay: Western blot, pFOXO4 T28 in IMR-32 cells; assay type: cell-based, human; settings: individual compound, 150 ppb
Procedure: as §2
(§4) For Western blot analysis, five micrograms of total proteins from vehicle- and compound(s)-treated cells were subjected to SDS-PAGE gel separation, and then transferred to PVDF membranes, as described previously (Reddy, Liu et al. 2008 Science). Membranes were blocked in a phosphate-buffered saline (PBS) containing 5% (w/v) of bovine serum albumin (Sigma, St. Louis, Mo.), and incubated with specific primary antibodies followed by the incubation with HRP-conjugated anti-mouse or anti-rabbit secondary antibodies (1:5000 dilution, Cell Signaling Inc.). All primary antibodies except G6PC (Santa Cruz), Actb (Li-COR, Lincoln, Nebr.), Elf2bε and pElf2bε (Abcam, Cambridge, Mass.) were purchased from Cell Signaling Inc. Positive signals on the membrane blots were detected using the Amersham's enhanced chemiluminescence Western Blotting Prime Detection reagents (GE healthcare Lifescience, Pittsburgh, Pa.). Images of these luminescence signals on the membrane blots were captured using the LI-COR Odyssey Fc Image system (Lincoln, Nebr.). The same membrane blot was striped and re-blotted with another antibody as described in the GE WB ECL-prime-detection protocol (GE healthcare Lifescience, Pittsburgh, Pa.). Protein band densities in the Western blots were determined using the Li-COR Image studio software or NIH ImageJ software, and then normalized by Actb level in each sample. Data are presented as mean±sem of three samples per each group.

pGSK3b = assay: Western blot, pGSK3b in AML-12 cells; assay type: cell-based, mouse; settings: individual compounds, 6 or 24 hr
Procedure: as §2
as §4, with “The same membrane blot was striped and re-blotted with another antibody as described in the GE WB ECL-prime-detection protocol (GE healthcare Lifescience, Pittsburgh, Pa.).” left out, “Data are presented as mean±sem of three samples per each group.” left out

PSEN = assay: Western blot, PSEN in IMR-32 cells; assay type: cell-based, human; settings: 150 ppb, 24 hr
Procedure: as §2, §3

PEN2 = assay: Western blot, PEN2 in IMR-32 cells; assay type: cell-based, human; settings: 150 ppb, 24 hr
Procedure: as §2, §3

Tau = assay: Western blot, ratio of phosphorylated Tau to total Tau in IMR-32 cells; assay type: cell-based, human; settings: 150 ppb, 24 hr
Procedure: as §2, §3

Gsk3b = assay: Western blot, Gsk3b in IMR-32 cells; assay type: cell-based, human; settings: 150 ppb, 24 hr, compared to control cells
Procedure: as §2, §3

Compound | MT potential (Mitotracker Orange fluorescence) (HEK293T cells; all tested doses (37.5 and 75 ppb)) | MT potential / mitochondrial activity in kidney cells (HEK293T cells) | MT potential (C2C12 cells [1]) | potency on MT potential relative to compound C (C2C12 cells [1]; lower doses (37.5 and 75 ppb)) | stimulation of mitochondrial activity over control levels (C2C12 cells [1]; most effective dose) | cell viability (C2C12 cells [2]) | cell viability (OD490 nm) (IMR-32 cells) | cell viability (OD490 nm) (AML-12 cells) | OCR (oxygen consumption rate) [3] | phosphorylation of Tau at S396 (pTau S396) | decrease of pFoxo4 (pFOXO4 T28) levels (pFOXO4 T28; 6 hr) | increased phosphorylation of Gsk3b (pGSK3b) | MT potential (Mitotracker Orange fluorescence) (HEK293T cells; 37.5 ppb) | MT potential (Mitotracker Orange fluorescence) (HEK293T cells; 75 ppb) | PSEN protein level (PSEN) | PEN2 protein (PEN2) | ratio of total pTauS396 and pTauS400/T403/S404 to total Tau proteins (Tau) | Gsk3b protein levels (Gsk3b) | decrease of pFoxo4 (pFOXO4 T28) levels (pFOXO4 T28; 24 hr)
Nc1ncnc2c1ncn2[C@@H]1O[C@H](C[Se]CC[C@@H](N)C(=O)O)C(O)C1O (stereo partly shown) [compound D, 5′-Selenoadenosyl homocysteine] | did not affect MT potential | ineffective | significantly enhanced MT potential | more potent than compound C | two-fold over control levels; also recorded: two-fold stimulation of mitochondrial activity | did not affect cell viability | lack of toxic effects | no toxic effects | 1,564 pMoles/min O2 | had no effect on Tau phosphorylation at all tested serine/threonine residues | statistically significant | did not observed the increased phosphorylation | – | – | – | – | – | – | –
C[Se]C[C@H]1O[C@@H](n2cnc3c(N)ncnc32)C(O)C1O (stereo in doubt) [compound C, 5′-Methylselenoadenosine] | – | enhanced MT potential | significantly enhanced MT potential | – | – | did not affect cell viability | lack of toxic effects; also recorded: Improved neuronal cell survival | no toxic effects | – | – | statistically significant | did not observed the increased phosphorylation | enhanced MT potential | less effects on MT potential | significant reduction | but not PEN2 and beta-secretase BACE proteins were attenuated | significantly attenuated total phosphorylation of Tau protein | statistically significant decrease of Gsk3b protein levels | statistically significant
C[Se]CC(NC(=O)CCC(N)C(=O)O)C(=O)O (stereo not shown) [compound E, gamma-glutamyl-methylseleno-cysteine] | – | – | – | – | – | – | lack of toxic effects | no toxic effects | 1,531 pMoles/min O2 | significantly down-regulated | statistically significant | did not observed the increased phosphorylation | – | – | – | – | trend of reduced Tau phosphorylation | – | statistically significant
